Assay results: US9447377B2, “Endodermal cells from pluripotent cells” (priority 2011, dated 2016)

How the values were obtained:
Assay type in all cases: cell-based, murine
[1] = test system: wt ES cells; experiment: Differentiation of wt ES cells in the presence of D-(−)-ribose; conditions: 10 neural differentiation days
Protocol: Wt murine or with a deletion of the gene coding for G6PD […]Δ) embryonic stem (ES) cells have been differentiated following the method described in Fico et al. (Fico A et al., Stem Cells Dev 2008). Briefly, 48 h before the induction of the differentiation, the ES cells have been plated onto pre-gelatinized plates. On day 0, the cells have been dissociated, thus obtaining a single cell suspension, which have subsequently been plated onto gelatinized plates at a density of 1.500 cells/cm2. During the differentiation process, the culture medium has been changed every other day for the first 6 days, then daily. The culture medium used consists in the medium free from integrated Knockout Serum Replacement (KSR) serum, and contains knockout Dulbecco minimal essential medium, integrated with 15% KSR (Invitrogen), 2 mM glutamine, 100 U/ml penicillin/streptomycin, and 0.1 mM β-mercaptoethanol. Heterozygous knock-out ES Pdg+/- cells for the phosphogluconate dehydrogenase (PDG) enzyme, the second enzyme present in the PPP, were exposed to the above-described differentiation procedure. These cells have reduced Pdg mRNA levels, and are not sensitive to oxidative stress. […] Furthermore, […]Δ cells were exposed to the same differentiation procedure, but in the presence of D-(-)-ribose. […]

[2] = test system: G6pdΔ cells; experiment: Quantitative (real-time) PCR of Sox17 mRNA in G6pdΔ cells differentiated in the presence of D-(−)-ribose; conditions: normalized to GAPDH, 10 neural differentiation days in the presence of D-(−)-ribose
Protocol: FIG. 2: (A) RT-PCR analysis of the expression of different specific differentiation markers in wt and Pgd+/- cells on neural differentiation days 8 and 10. (B) QRT-PCR analysis of Sox17 expression in wt ES e […]Δ cells after 10 neural differentiation days in the presence of D-(-)-ribose. Wt murine or with a deletion of the gene coding for G6PD […]Δ) embryonic stem (ES) cells have been differentiated following the method described in Fico et al. (Fico A et al., Stem Cells Dev 2008). Briefly, 48 h before the induction of the differentiation, the ES cells have been plated onto pre-gelatinized plates. On day 0, the cells have been dissociated, thus obtaining a single cell suspension, which have subsequently been plated onto gelatinized plates at a density of 1.500 cells/cm2. During the differentiation process, the culture medium has been changed every other day for the first 6 days, then daily. The culture medium used consists in the medium free from integrated Knockout Serum Replacement (KSR) serum, and contains knockout Dulbecco minimal essential medium, integrated with 15% KSR (Invitrogen), 2 mM glutamine, 100 U/ml penicillin/streptomycin, and 0.1 mM β-mercaptoethanol. Heterozygous knock-out ES Pdg+/- cells for the phosphogluconate dehydrogenase (PDG) enzyme, the second enzyme present in the PPP, were exposed to the above-described differentiation procedure. […]

[3] = test system: wt ES cells; experiment: Differentiation of wt ES cells towards Sox17+ cells under PPP chemical inhibition, immunofluorescence analysis; conditions: immunofluorescence with anti-Sox17 antibody; serum-free KSR neural differentiation medium
Protocol: (§1) Wt murine or with a deletion of the gene coding for G6PD (G6pdΔ) embryonic stem (ES) cells have been differentiated following the method described in Fico et al. (Fico A et al., Stem Cells Dev 2008). Briefly, 48 h before the induction of the differentiation, the ES cells have been plated onto pre-gelatinized plates. On day 0, the cells have been dissociated, thus obtaining a single cell suspension, which have subsequently been plated onto gelatinized plates at a density of 1.500 cells/cm2. During the differentiation process, the culture medium has been changed every other day for the first 6 days, then daily. The culture medium used consists in the medium free from integrated Knockout Serum Replacement (KSR) serum, and contains knockout Dulbecco minimal essential medium, integrated with 15% KSR (Invitrogen), 2 mM glutamine, 100 U/ml penicillin/streptomycin, and 0.1 mM β-mercaptoethanol.
From 6 days of differentiation, the expression profiles of markers of undifferentiated cells and specific markers for the three germ layers have been analyzed by RT-PCR. The expression of Oct4 and Nanog, markers of undifferentiated ES cells, is detectable in both cell lines (FIG. 1A). […]

[4] = test system: G6pdΔ cells; experiment: Differentiation of G6pdΔ cells towards pancreatic precursors, Real Time PCR of Pdx1 expression; conditions: G6pdΔ cells on differentiation day 8, 4 day exposure
Protocol: as §1
The real-time PCR analysis was carried out with a Biorad CFX 96 Real time System apparatus using a SYBR Green PCR Master Mix (Biorad) and the protocol recommended by the manufacturer. The relative expression of the various genes was normalized by using GAPDH as the gene standard. The used oligos were:
G6pdΔ cells on differentiation day 8, that are already expressing Sox17, are exposed to Indolactam V, an inducer of the differentiation of endoderm precursors towards pancreatic precursors. […]

Structure (SMILES): O=C[C@H](O)[C@H](O)[C@H](O)CO [D-(−)-ribose]
- variation in the differentiation of wt ES cells [1]: does not lead to any variation in the differentiation of wt ES cells
- Sox17 mRNA levels in G6pdΔ cells [2]: a reduction in Sox17 mRNA levels

Structure (SMILES): NC(=O)c1ccc(N)nc1 [AN, 6-aminonicotinamide]
- induction of differentiation of wt ES cells towards Sox 17+ cells [3]: capable of inducing the differentiation of wt ES cells towards Sox 17+ cells

Structure (SMILES): CC(C)[C@H]1C(=O)N[C@H](CO)Cc2c[nH]c3cccc(c23)N1C [Indolactam V]
- increase in the Pdx1 expression levels compared to control cells [4]: about 2.5 times

Structure (SMILES): C[C@]12CC[C@H](O)CC1=CC[C@@H]1[C@@H]2CC[C@]2(C)C(=O)CC[C@@H]12 [DHEA, dehydroepiandrosterone]
- induction of differentiation of wt ES cells towards Sox 17+ cells [3]: capable of inducing the differentiation of wt ES cells towards Sox 17+ cells
